# “Also recorded” adds a separate entry of the source.
# Columns and labels:
# [1] = test system: 4T1 triple negative breast cancer cells; experiment: 4T1 cell proliferation in vitro, Incucyte live-cell confluence; assay type: cell-based, mouse; details: 10, 100, 1000 nM, presence or absence of estradiol-17β, 5 days
# Procedure: FIGS. 23A-23C show estrogen effects on ERα negative tumor growth in vitro and in vivo. […] Female 6-wk-old BALB/c mice, either ovariectomized (ovx) or sham-operated (intact), were inoculated s.c. with 2×10^5 4T1 TNBC cells. Tumor growth was then assessed every 3 days, with tumor volume calculated as V=(l×w×w)/2. ****P≤0.0001. […] 4T1 cells were grown in the presence (+E2) or absence (−E2) of estradiol-17β and increasing concentrations of SERD128 at 10 nM (128-10), 100 nM (128-100) or 1000 nM (128-1000). Cell proliferation was assessed using the Incucyte S3 Live-Cell Analysis system with pictures obtained every 4-6 hours. […] Tumors were measured every 3 days, and tumor volume was calculated as V=(W(2)×L)/2). **P<0,01, ****P<0.0001 as compared to control group. n=11-12.
# MCF-7 and other selected BC cells were seeded in 96-well plates at […] in complete medium. […] Cell number and viability were determined by either cell counts or by colorimetric assays using the CELLTITER 96 AQUEOUS (Promega) assay or the cell proliferation ELISA BrdU assay (Roche) as per manufacturer's instructions. […] In selected experiments using the INCUCYTE™ Live Cell System (Essen Bioscience) as per the manufacturer's instructions, the proliferation of 4T1 cells maintained in a tissue culture incubator was monitored by using the NucLight Rapid Red Reagent for cell labeling in 6-well plates. […]
# STAT3 = experiment: Phosphorylated STAT3 in G-MDSC subpopulations, flow cytometry; assay type: cell-based, human; details: 1 μM in normal medium with GM-CSF and IL6, 6 days
# Procedure: Bone marrow cells from three breast cancer patients were incubated with GM-CSF and IL6 in the following groups: normal medium (contains estradiol) in the presence of vehicle (CON), 1 μM fulvestrant (FULV) or 1 μM S128. After 6 days, cells were subjected to flow cytometry using an antibody directed to phosphorylated STAT3 (p-STAT; 1).
# FIGS. 22A-22B show expansion of MDSCs is dependent on estrogen signaling and reversed by antiestrogens. […] Retrospectively-collected BM cells from de-identified BC patients were purified by established methods including red blood cell lysis and Ficoll gradients and then incubated with GM-CSF and IL-6 for 6 days in either regular RPMI medium+15% FBS (NM) (contains estrogens), NM with antiestrogens (FULV or SERD128) or in phenol red-free medium with 15% charcoal coated-dextran treated FBS (EFM) (estrogen-depleted) with or without the addition of 100 nM estradiol-17β (EFM+E2). […]
# Human myeloid-derived suppressor cells were expanded from bone marrow (BM) specimens of BC patients after standard Ficoll gradient purification and red blood cell lysis. […] After 6 days of culture, cells were harvested, stained with a 14 antibody panel including anti-phospho-STAT3 (pSTAT3) and analyzed by flow cytometry with an LSRII with a 5 lasers (UV, violet, blue, green-yellow and red). […]
# MCF-7/HER2 cells = experiment: Cell proliferation assay, MCF-7 with HER2-overexpression; assay type: cell-based, human; details: MCF-7/HER2, 10 nM with 2 nM estradiol-17β, 48 hr
structure (smiles),measurement,setting,value
"C[C@]12C[C@H](Oc3ccc(N)c(C(F)(F)F)c3)[C@@H]3c4ccc(O)cc4CC[C@H]3[C@@H]1CC[C@@H]2O [SERD128, (8S,9S,11S,13S,14S,17S)-11-(4-Amino-3-(trifluoromethyl)phenoxy)-13-methyl-7,8,9,11,12,13,14,15,16,17-decahydro-6H-cyclopenta[a]phenanthrene-3,17-diol]",4T1 cell proliferation (phase object confluence),[1],No significant differences were observed in cell proliferation; also recorded: did not elicit any significant effect on cell growth in vitro
same,p-STAT3 median fluorescence intensity in G-MDSC,STAT3,blocks phosphorylation/activation of STAT3; also recorded: especially effective in blocking the phosphorylation and activation of STAT3
same,p-STAT3 median fluorescence intensity in G-MDSC,STAT3; listed as S128,blocks phosphorylation/activation of STAT3; also recorded: inhibits the STAT signaling pathway
same,cell proliferation (% of estradiol-treated controls),MCF-7/HER2 cells,significantly blocked proliferation; also recorded: antiproliferative action
